This is an account of results in patent US10561638B2, “Methods for treating dependence” (Biotie Therapies, Inc., priority 2007, dated 2020).

In this assay the target is T1, bovine dopamine β-hydroxylase (Bos taurus, UniProt P15101).
T1 construct: Bovine DBH from adrenal glands was obtained from Sigma Chemical Co; purchased Sigma Chemicals (St Louis, Mo., USA); host or cells: bovine adrenal glands
T1 sequence (P15101 1-610): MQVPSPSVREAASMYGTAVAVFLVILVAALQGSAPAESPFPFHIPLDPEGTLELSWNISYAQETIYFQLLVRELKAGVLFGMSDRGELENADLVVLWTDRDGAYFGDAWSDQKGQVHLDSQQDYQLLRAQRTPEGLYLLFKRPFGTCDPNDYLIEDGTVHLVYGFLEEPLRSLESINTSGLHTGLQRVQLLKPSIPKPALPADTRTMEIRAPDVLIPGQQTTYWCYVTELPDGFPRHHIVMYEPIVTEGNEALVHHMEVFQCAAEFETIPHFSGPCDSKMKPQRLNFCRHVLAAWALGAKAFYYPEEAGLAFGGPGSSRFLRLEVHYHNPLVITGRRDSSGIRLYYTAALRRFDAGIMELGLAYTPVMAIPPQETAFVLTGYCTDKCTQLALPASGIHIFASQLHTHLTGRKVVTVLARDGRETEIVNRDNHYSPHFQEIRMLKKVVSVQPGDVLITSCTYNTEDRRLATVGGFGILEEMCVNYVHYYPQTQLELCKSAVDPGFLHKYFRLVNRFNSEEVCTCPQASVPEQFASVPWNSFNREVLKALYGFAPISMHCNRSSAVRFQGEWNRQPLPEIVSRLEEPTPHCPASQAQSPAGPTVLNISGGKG
Kind of assay: DBH assay, conversion of tyramine to octopamine. Type of assay: biochemical. Here is the method:
Bovine and human dopamine β-hydroxylase activity were assayed by measuring the conversion of tyramine to octopamine. Bovine adrenal dopamine β-hydroxylase was obtained from Sigma Chemicals (St Louis, Mo., USA) whereas human dopamine β-hydroxylase was purified from the culture medium of the neuroblastoma cell line SK-N-SH. The assay was performed at pH 5.2 and 32° C. in a medium containing 0.125 M NaAc, 10 mM fumarate, 0.5-2 μM CuSO4, 0.1 mg·ml^−1 catalase, 0.1 mM tyramine and 4 mM ascorbate. In a typical assay, 0.5-1 milliunits of enzyme were added to the reaction mixture and, subsequently, a substrate mixture containing catalase, tyramine and ascorbate was added to initiate the reaction (final volume of 200 μl). Samples were incubated with or without the appropriate concentration of nepicastat or Compound B at 37° C. for 30 to 40 minutes. The reaction was quenched by the stop solution containing 25 mM EDTA and 240 μM 3-hydroxytyramine (internal standard). The samples were analyzed for octopamine by reverse phase high pressure liquid chromatography (HPLC) using ultraviolet-detection at […]. The HPLC chromatography run was carried out at the flow rate of 1 ml·min^−1 using a LiChroCART 125-4 RP-18 column and isocratic elution with 10 mM acidic acid, 10 mM 1-heptane sulfonic acid, 12 mM tetrabutyl ammonium phosphate and 10% methanol. The remaining percent activity was calculated based on controls, corrected using internal standards and fitted to a non-linear four-parameter concentration-response curve.
DBH activity was assayed by measuring the conversion of tyramine to octopamine. […] The samples were analyzed for octopamine by reverse phase HPLC using UV detection at […]. The remaining percent activity was calculated based on controls (without inhibitor), corrected using internal standards and fitted to a non-linear 4-parameter concentration-response curve to obtain IC50 values.
An HPLC assay was used to measure DBH activity using tyramine and ascorbate as substrates. […] The samples (150 μl) were loaded to a Gilson autosampler and analyzed by HPLC using UV detection at 280 nm. […]

Regarding `Cl.NCc1c[nH]c(=S)n1[C@H]1CCc2c(F)cc(F)cc2C1` [nepicastat, (S)-5-Aminomethyl-1-(5,7-difluoro-1,2,3,4-tetrahydronaphth-2-yl)-2,3-dihydro-2-thioxo-1H-imidazole hydrochloride], under “bovine DBH”, the “potency of nepicastat relative to Compound B” value is reported as 3 fold. Besides, where the note is “bovine enzyme”, the “potency of nepicastat relative to SKF-102698” value was 8 fold.
As to `Fc1cc(F)cc(Cn2cc[nH]c2=S)c1` [SKF-102698, reference compound], the concentration for half-maximal inhibition (IC50) (0.1 mM tyramine, 4 mM ascorbate, pH 5.2) is 67 ± 4.2 nM.

Usually IC50 stands for the midpoint of a concentration-inhibition curve. Low readings indicate higher potency, high ones lower potency.
